Results published in US4835157A, “Thieno- and furopyrimidine-2,4-dione piperidine derivatives as serotonin antagonists and alpha adrenergic blocking agents” (Ortho Pharmaceutical Corporation, priority 1988, dated 1989).

Key:
[1] = molecular target: T1, 5HT2 (Rattus norvegicus, UniProt P14842); experiment: 5HT2 Blockade in vivo (antagonism of 5HT induced pressor responses); design: Spontaneously hypertensive rats were anesthetized with sodium pentobarbital; from tissue; host or cells: whole animal: anesthetized spontaneously hypertensive rats (vasculature); species or system spontaneously hypertensive rats; settings: rat, iv, read-out: 5-HT-Induced Pressor Response ED50
T1 sequence (P14842 whole entry): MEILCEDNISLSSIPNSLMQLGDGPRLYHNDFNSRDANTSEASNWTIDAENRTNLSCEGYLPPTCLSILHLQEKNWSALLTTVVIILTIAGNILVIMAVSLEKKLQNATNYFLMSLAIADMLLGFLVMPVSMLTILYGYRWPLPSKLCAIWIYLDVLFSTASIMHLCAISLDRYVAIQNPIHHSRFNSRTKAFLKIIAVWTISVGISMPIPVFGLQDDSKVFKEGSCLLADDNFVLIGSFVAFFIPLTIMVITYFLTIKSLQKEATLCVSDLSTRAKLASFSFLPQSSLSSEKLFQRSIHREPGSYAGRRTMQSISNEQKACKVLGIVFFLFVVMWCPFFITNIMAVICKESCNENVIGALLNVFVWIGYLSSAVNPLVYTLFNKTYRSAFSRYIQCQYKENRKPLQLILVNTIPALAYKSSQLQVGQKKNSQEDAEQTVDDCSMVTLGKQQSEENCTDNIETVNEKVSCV
Protocol: Antagonism of 5HT induced pressor responses was used to assess 5HT2 blockade in vivo. Spontaneously hypertensive rats were anesthetized with sodium pentobarbital (50 mg/kg, i.p.). The right carotid artery and vein were cannulated for pressure recording and drug injection, respectively. The trachea was cannulated, the rat placed on a respirator and ventilated with room air at 50-60 breaths/minute. Rats were pretreated with prazosin hydrochloride (1 mg/kg, i.v., blous) and pentolinium tartrate (5 mg/kg, i.v., bolus). After 10 minutes equilibration, the rat was challenged with 5HT (100 μg/kg) which elevates mean arterial pressure (MAP) 60-100 mmHg; non-responsive rats were discarded.
After a baseline had been reestablished, bolus injections of 5HT (100 μg/kg, i.v.) were given and the MAP responses were evaluated both pre- and post-drug administration. 5HT challenges were repeated 10 minutes after each dose of antagonist. Up to three cumulative doses of the antagonist were given to a single animal.

[2] = system: alpha1 adrenergic receptor; experiment: Alpha1 Blockade in vivo (inhibition of phenylephrine pressor response); design: species or system spontaneously hypertensive rats (SHR); settings: anesthetized, vagotomized SHR; i.v.
Protocol: The potency of these compounds as alpha1 adrenergic antagonists was determined using the following procedure: adult male spontaneously hypertensive rats (SHR) were anesthetized and bilaterally vagotomized. A carotid artery and jugular vein were cannulated for monitoring mean arterial blood pressure and drug administration, respectively. The percent inhibition of alpha1 adrenergic receptor activation was quantified by measuring pressor responses to phenylephrine before and after antagonist treatment. […] Compounds were tested to the limits of their solubility for intravenous administration.

[3] = system: serotonin receptors; experiment: Inhibition of 5-HTP-Induced Head Twitching; assay type: in vivo; settings: male CD1 mice
Protocol: Inhibition of 5-HTP-Induced Head Twitching
This test detects compounds with antagonistic activity of serotonin receptors in vivo, and is a modified procedure of Corne, Pickering and Warner, Brit. J. Pharmacol. 20, 106 (1963). Groups of male CD1 mice were fasted overnight but allowed water ad libitum. They were deprived of water during the course of the experiment. The mice were weighed and treated orally or parenterally with the test compound in a dose volume of 10 ml/kg. Doses of test substance were calculated based upon the active compound. Substances for oral administration were dissolved or suspended in a 0.5% aqueous methylcellulose (15 centipoises) vehicle containing 4 ml of Tween 80/l.
A dose of 160 mg/kg of L-5-hydroxytryptophan (5-HTP) was administered i.v. in a dose volume of 5 ml/kg after one hour. The test mouse was restrained in a rodent restrainer that allowed the tail to extend out the back. The tail was then placed in tepid (but not scalding) water for approximately 10 seconds to soften the skin and dilate the tail vein. A 1 ml syringe and 25 gauge (5/8 inch) needle was used to administer the 5-HTP solution into one of the lateral tail veins.
A timer was started after dosing with 5-HTP to the first animal of the test group. […] A head twitch involves the head, neck and ears and has the appearance of an exaggerated pinal reflex. The number of head twitches for each individual vehicle-treated mouse were recorded to establish a historical baseline.
The active compounds in the test block the twitch response (the response rated all or none).

[4] = molecular target: T1, 5HT2; experiment: Brain Serotonin (5-HT2) Radioreceptor Assay (3H-ketanserin displacement, rat frontal cortex membranes); assay type: binding; design: dissected from brains obtained from female rats; from tissue; host or cells: frontal cortex of female rats (about 150 g), membrane fragments; settings: 15 min at 37° C
Protocol: Brain Serotonin (5-HT2) Radioreceptor Assay
The test objects of this Example were rat frontal cortex membranes. Mebrane fragments were prepared from the frontal cortex dissected from brains obtained from female rats (≈150 g). […] Compound bound to the receptor site was separated from the remaining unbound compound by vacuum filtration. […] Specific binding was determined by the difference between total counts bound and counts bound in the presence of 10^-6 M methysergide.

[5] = molecular target: T2, 5HT1A receptor (Rattus norvegicus, UniProt P19327); experiment: Brain Serotonin (5HT1A) radioreceptor Assay (3H-8-OH DPAT displacement, rat frontal cortex membranes); assay type: binding; settings: 3H-8-OH DPAT
T2 construct: Membrane fragments were prepared from prefrontal cortex; from tissue; host or cells: prefrontal/frontal cortex of female rats (about 150 g), membrane fragments
T2 sequence (P19327 1-422): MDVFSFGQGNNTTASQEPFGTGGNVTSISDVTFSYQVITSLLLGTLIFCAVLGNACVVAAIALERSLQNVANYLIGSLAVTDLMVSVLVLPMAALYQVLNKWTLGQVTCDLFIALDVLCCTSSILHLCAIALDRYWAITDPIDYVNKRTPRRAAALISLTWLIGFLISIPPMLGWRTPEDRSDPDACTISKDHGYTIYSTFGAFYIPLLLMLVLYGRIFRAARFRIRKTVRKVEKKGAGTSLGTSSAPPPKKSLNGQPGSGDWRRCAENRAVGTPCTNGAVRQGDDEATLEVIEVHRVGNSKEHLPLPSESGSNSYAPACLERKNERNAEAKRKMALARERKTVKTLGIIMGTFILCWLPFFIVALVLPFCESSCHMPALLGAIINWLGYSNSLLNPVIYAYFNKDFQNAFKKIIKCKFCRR
Protocol: Brain Serotonin (5HT1A) radioreceptor Assay
The text objects of this procedure were rat frontal cortex membranes. Membrane fragments were prepared from prefrontal cortex disected from brains obtained from female rats (≈150 g). The 5HT1A sites were labeled with ^3 H-8-OH dipropylaminotetralin (8-OH-DPAT). Membrane fragments, ^3 H-8-OH DPAT, TRIS buffer (pH 7.4) and unlabeled compound were incubated for 10 minutes at 37° C. and then for 10 minutes at 4° C. Separation of bound from unbound ^3 H-8-OH DPAT was performed by vacuum filtration on a glass fiber disc. The ability of a compound to compete with ^3 H-8-OH DPAT for binding sites is a measure of the affinity of the compound for the 5HT1A receptor. Specific binding was determined by the difference between total counts bound and the counts bound in the presence of […] 5-hydroxytryptamine.

[6] = system: Serotonin-Induced Smooth Muscle Contractions (rabbit thoracic aorta); experiment: Inhibition of Serotonin-Induced Smooth Muscle Contractions (isolated thoracic aorta strips); assay type: cell-based; settings: Oryctolagus cuniculus, 10 min, concentration shifting the serotonin dose curve 10x to the right, 10 min preincubation, read-out: 5-HT-Induced Smooth Muscle Contraction DR10
Protocol: Inhibition of Serotonin-Induced Smooth Muscle Contractions
The test objects of this Example were canines and rabbits. Rabbits were sacrificed by T-61 injection and the thoracic aorta was removed immediately. The aorta was placed in warmed, oxygenated Krebs-Henseleit buffer. After the tissue was cleaned, a 2-3 mm wide strip was cut helically from each aorta. A strip of approximately 5 cm was suspended in Krebs-Henseleit buffer at 37° C. in a 25 ml tissue bath and the tissues equilibrated at an initial resting tension of 4 g for 90-120 minutes. An initial serotonin dose curve, 0.01-10 μM was then done on each tissue, followed by a 60 minute washout and reequilibration. The test drug was then added for a 10 minute preincubation and another serotonin dose curve was done using 0.01-100 μM.
Results are expressed as DR10 values. This is the concentration of the compound required to shift the serotonin dose curve 10x to the right, i.e., the concentration of antagonist at which the concentration of serotonin required for 50% maximal contraction is increased ten-fold.

[7] = system: Spontaneously Hypertensive Rats (SHR); experiment: Antihypertensive Activity in Spontaneously Hypertensive Rats (SHR); assay type: in vivo, rat; settings: @ 5 mg/kg p.o., 4 h monitoring
Protocol: Antihypertensive Activity in Spontaneously Hypertensive Rats (SHR)
Antihypertensive activity was assessed using the following procedure. Adult male SHR were surgically prepared with arterial cannuli under light ether anesthesia and given 60-90 minute post-surgical recovery. Mean arterial pressure (MAP) was continuously monitored via the arterial line. After baseline MAP was recorded, groups of 3-6 SHR received a single dose of drug or vehicle (0.5% methylcellulose) administered by gavage at doses of 1 to 5 mg/kg.MAP was monitored for four hours post-dosing.
Maximal changes in MAP were reported.

[8] = system: serotonin-induced platelet aggregation; experiment: Platelet Aggregation Assay (serotonin-induced); assay type: cell-based; settings: Platelet; human plasma, serotonin 5 μM
Protocol: Platelet Aggegation Assay
Human blood was collected into tubes containing sodium citrate. The plasma was separated by centrifugation and was used as the source of platelets. Serotonin (5 μM) was used as the agonist to induce platelet aggregation. A control aggregation curve (as measured by the decrease in absorbance in transmitted light) was obtained in the presence of serotonin and in the absence of test compound. The test compound was added to an identical sample in a cuvette for one minute before addition of serotonin to yield the experimental curve.

Row | Compound | ED50 [1] [mg/kg] | Phenylephrine-Induced Pressor Response ED50 [2] [mg/kg] | Inhibit. of 5-HTP-Head Twitch (result in words) ([3]; @ 10 (mg/kg, p.o.)) | IC50 [4] [nM] | inhibition at 1 µM ([5]; @ 1 μM, read-out: Brain 5-HT1 Receptor % displaced (% inhibition)) [%] | IC (10-fold shift) [6] [µM] | Antihypertensive Activity, p.o., % AMAP (maximal change in mean arterial pressure) [7] [%] | IC50 [8] [nM] | Inhibit. of 5-HTP-Head Twitch ED50 ([3]; 5-HTP 160 mg/kg i.v. after one hour) | IC50 ([5]; rat frontal cortex membranes, pH 7.4, read-out: Brain 5-HT1 Receptor IC50) [nM]
1 | CC(=O)n1c(=O)n(CCN2CCC(C(=O)c3ccc(F)cc3)CC2)c(=O)c2ccsc21 [Example 3, 1-Acetyl-3-[2-[4-(4-fluorobenzoyl)piperidin-1-yl]ethyl]thieno[2,3-d]pyrimidine-2,4-dione] | 0.025 | 10.0 | Inact. | 2.4 | 13 | 0.0229 | -4 | 8000 |  | 
2 | O=C(c1ccc(F)cc1)C1CCN(CCn2c(=O)[nH]c3ccsc3c2=O)CC1 [Example 1, 3-[2-[4-(4-Fluorobenzoyl)piperidin-1-yl]ethyl]thieno[3,2-d]pyrimidine-2,4-dione] | 0.009 | > 10 |  | 0.6 |  | 0.0063 | -10 | 34 | 2.1 mg/kg, p.o. | 16000
